What all share (type): biochemical
Experiment [1] addresses T1, Pdr11p (Saccharomyces cerevisiae, UniProt P40550).
T1 construct: gene PDR11; N-terminal FLAG-tagged Pdr11p, purified in DDM
T1 sequence (P40550 1-1411): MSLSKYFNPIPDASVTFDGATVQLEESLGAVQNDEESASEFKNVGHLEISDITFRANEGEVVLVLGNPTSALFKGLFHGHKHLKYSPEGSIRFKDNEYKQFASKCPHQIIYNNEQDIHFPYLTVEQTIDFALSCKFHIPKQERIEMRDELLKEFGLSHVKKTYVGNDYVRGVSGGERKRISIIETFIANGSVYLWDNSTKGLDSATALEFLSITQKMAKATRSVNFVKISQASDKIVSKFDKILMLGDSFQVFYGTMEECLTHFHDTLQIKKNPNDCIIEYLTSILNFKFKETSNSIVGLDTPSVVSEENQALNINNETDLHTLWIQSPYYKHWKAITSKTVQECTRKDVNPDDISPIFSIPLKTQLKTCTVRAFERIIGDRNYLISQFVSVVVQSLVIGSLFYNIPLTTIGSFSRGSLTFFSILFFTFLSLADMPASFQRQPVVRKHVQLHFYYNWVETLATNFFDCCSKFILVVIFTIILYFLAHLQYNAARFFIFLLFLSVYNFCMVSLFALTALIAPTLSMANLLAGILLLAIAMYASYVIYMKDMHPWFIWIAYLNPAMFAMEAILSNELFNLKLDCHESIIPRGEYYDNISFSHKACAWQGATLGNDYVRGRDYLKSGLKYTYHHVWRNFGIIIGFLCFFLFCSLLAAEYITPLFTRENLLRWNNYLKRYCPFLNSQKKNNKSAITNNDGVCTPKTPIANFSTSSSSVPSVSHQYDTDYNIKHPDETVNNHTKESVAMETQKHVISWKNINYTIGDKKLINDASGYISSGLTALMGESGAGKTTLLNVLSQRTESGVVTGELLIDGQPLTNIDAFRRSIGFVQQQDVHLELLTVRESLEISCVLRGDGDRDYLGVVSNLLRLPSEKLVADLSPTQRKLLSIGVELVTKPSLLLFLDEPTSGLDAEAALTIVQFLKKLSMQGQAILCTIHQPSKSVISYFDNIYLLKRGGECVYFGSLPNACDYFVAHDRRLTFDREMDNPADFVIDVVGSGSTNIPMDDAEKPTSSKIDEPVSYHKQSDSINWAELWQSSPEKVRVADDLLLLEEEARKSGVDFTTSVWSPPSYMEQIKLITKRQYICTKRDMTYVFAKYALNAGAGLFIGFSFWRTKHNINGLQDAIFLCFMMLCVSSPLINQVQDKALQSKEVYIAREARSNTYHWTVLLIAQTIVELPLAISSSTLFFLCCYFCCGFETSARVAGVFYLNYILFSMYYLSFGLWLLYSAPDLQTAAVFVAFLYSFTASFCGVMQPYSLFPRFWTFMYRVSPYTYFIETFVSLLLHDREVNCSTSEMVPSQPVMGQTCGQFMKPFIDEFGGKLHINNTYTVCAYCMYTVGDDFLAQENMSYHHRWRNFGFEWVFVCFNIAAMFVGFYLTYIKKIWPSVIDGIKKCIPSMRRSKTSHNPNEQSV
Description: radiolabelled ATPase assay with purified protein, […] AlF3.

The target of the next experiment is T2, Aus1p (Saccharomyces cerevisiae, UniProt Q08409).
T2 construct: gene AUS1; FLAG-tagged Aus1p, purified and reconstituted in liposomes
T2 sequence (Q08409 1-1394): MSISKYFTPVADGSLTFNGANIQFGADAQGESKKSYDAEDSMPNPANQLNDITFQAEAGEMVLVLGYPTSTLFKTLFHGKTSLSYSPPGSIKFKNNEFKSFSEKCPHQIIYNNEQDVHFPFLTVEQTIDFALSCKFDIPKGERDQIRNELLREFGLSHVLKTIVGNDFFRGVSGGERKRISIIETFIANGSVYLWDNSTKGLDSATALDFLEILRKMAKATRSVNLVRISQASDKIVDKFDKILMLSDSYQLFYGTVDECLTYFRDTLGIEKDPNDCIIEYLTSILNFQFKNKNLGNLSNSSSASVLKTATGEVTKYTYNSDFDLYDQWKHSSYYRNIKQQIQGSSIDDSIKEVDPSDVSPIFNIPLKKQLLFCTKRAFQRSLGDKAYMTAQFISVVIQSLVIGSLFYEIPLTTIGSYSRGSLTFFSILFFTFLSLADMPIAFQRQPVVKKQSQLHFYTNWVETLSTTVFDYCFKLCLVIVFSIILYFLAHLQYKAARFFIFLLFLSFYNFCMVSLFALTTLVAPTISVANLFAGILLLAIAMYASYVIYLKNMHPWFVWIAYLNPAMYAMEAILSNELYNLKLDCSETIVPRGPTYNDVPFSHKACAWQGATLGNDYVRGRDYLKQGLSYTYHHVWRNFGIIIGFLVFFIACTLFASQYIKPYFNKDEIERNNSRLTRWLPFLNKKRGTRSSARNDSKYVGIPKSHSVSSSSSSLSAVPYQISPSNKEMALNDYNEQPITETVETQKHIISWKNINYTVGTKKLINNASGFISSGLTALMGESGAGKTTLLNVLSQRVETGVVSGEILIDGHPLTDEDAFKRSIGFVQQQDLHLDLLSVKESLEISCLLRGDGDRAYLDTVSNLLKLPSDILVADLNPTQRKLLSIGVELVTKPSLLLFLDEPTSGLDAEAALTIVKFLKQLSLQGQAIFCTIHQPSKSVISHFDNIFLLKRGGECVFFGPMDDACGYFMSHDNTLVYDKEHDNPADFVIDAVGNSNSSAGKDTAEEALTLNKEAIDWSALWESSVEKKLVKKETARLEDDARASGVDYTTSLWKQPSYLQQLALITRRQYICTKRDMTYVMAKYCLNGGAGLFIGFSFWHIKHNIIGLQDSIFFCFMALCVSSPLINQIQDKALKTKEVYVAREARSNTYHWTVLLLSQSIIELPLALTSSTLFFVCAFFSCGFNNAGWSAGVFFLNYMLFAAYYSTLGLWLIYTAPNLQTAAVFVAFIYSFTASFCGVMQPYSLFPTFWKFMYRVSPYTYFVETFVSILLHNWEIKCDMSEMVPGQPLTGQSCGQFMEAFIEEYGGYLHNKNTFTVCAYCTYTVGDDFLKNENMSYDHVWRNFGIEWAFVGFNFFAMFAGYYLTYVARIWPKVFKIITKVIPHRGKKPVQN
The experiment in a line: radiolabelled ATPase assay with liposome-reconstituted protein.

The target in experiment [2] is T1, Pdr11p. Description: radiolabelled ATPase assay (release of inorganic phosphate) with purified protein.
For experiment [3], the target named is T1, Pdr11p. Description: radiolabelled ATPase assay, dose-response with purified protein.

On to `[F][Al]([F])[F]` [aluminium fluoride], for which the “radiolabelled ATPase assay with purified protein, 1 mM AlF3” value on Pdr11p [1] was “strongly inhibited by the classical inhibitors of ABC proteins beryllium fluoride and aluminium fluoride (Fig 4B)”.
Take `Nc1ncnc2c1ncn2[C@@H]1O[C@H](COP(=O)(O)OP(=O)(O)OP(=O)(O)O)[C@@H](O)[C@H]1O` [ATP]: at Aus1p, the “radiolabelled ATPase assay with liposome-reconstituted protein” value was “Purified Pdr11p and Aus1p were reconstituted into different liposomes (containing Rho-PE as fluorescent lipid marker) and assayed for ATPase activity”. The “radiolabelled ATPase assay (release of inorganic phosphate) with purified protei” value at Pdr11p [2] is recorded as ~ 60 ± 24 nmol of ATP/min/mg of protein.
The term IC50 denotes the point on the concentration scale where inhibition reaches its midpoint. `[O]=[V]([OH])([OH])[OH]` [orthovanadate] had a half-maximal inhibitory concentration (IC50) on Pdr11p [3] of 4 ± 2 mM.

The record behind these values is article PMC5602531, “Purification and characterisation of the yeast plasma membrane ATP binding cassette transporter Pdr11p” (PLoS ONE, 2017).
